Where two headings read alike, the source gives them in different places.
What was measured:
[1] = test system: HBV (3TC-resistant virus: rtV204) in HepAD79 cells; experiment: microbe, parasite or virus in culture; assay type: cell-based
Method: (§1) HepAD38 and HepAD79 cells were seeded at 5×10^4 cells/well in a 96-well plate in seeding medium (DMEM/F12+10% FBS, 50 μg/ml penicillin, 50 μg/ml streptomycin, 100 μg/ml kanamycin, 400 μg/ml G418, and 0.3 μg/ml tetracycline) and incubated for 2 days at 37° C. in a 5% CO2, humidified atmosphere. The seeding media was removed, and cells were washed 3 times with PBS. Cells were then incubated with 200 μL assay medium (DMEM/F12+10% FBS+P/S/K) containing either (i) no compound, (ii) test compound, or (iii) control drugs at 10 μM. After an additional 5-day (HepAD38) or 13-day incubation (HepAD79, with renewal of the culture media at day 7), the cell supernatant was collected and stored at −70° C. until HBV DNA was quantified.
(§2) HBV DNA was extracted from supernatant using QiaAmp DNA blood Mini kit (Qiagen) and nucleic acids eluted in 200 μl Viral DNA was detected by quantitative PCR (Q-PCR). The TaqMan probe and primers were designed using the Primer Express software (Applied Biosystems) and cover highly conserved sequences complementary to the DNA sequences present in HBsAg. A total of 5 μl DNA was amplified using reagents and conditions as described by the manufacturer (Applied Biosystems).
Subsequently, the time course of viral induction in HepAD79 cells over a 13-day incubation period was investigated.
Therefore, the DNA extracted from the cell supernatant was also amplified by Q-PCR for the presence of cellular DNA (the rRNA gene).

M522V virus (rtV204 HBV) = conditions: Ono S. K. et al.; cited from earlier work
[2] = test system: HBV (wild-type virus: rtM204) in HepAD38 cells; experiment: Suppression of HBV production in HepAD38 cells, viral DNA in supernatant by Q-PCR; assay type: cell-based; conditions: HepAD38 cells, 5-day incubation
Excerpt: The HepAD38 (wild-type virus: rtM204) and HepAD79 (3TC-resistant virus: rtV204) (Stuyver L. J. et al. 2001, Hepatol., 33:751-757) cell lines replicate HBV under conditions that can be regulated with tetracycline (King R. W. et al. 2000, Methods in Molecular Medicine, Vol 24: Antiviral Methods and Protocols, 43-50 (eds: D. Kinchington & R. F. Schinazi), Humana Press Inc, Totowa, N.J.); Ladner, et al. 1997, Antimicrob. Agents Chemother., 41:1715-1720; Ladner S. K., et al. 1998a. Antivir. Chem. Chemother., 9:65-72; Ladner S. K., et al. 1998b. Antimicrob. Agents Chemother., 42:2128-31). In the presence of this drug, the cell supernatant is virtually free of viral DNA, but upon the removal of tetracycline from the culture medium, these cells secrete virus-like particle into the supernatant.
as §1
as §2, with “Biosystems). […]” for “Biosystems).”

HepG2 cells = experiment: Cell growth of HepG2 cells during 14-day treatment; assay type: cell-based, human; conditions: HepG2, up to 100 μM, 14 days
Method: In addition, these compounds were also tested in the HepG2 cell line (14-day treatment, 100 μM) for their ability to reduce mitochondrial DNA levels (using a newly designed normalized Q-PCR protocol as described in Stuyver, L. J., et al. 2002, Antimicrob. Agents Chemother., 46:3854-3860) or lactic acid production.

[3] = test system: HepG2 cells (mitochondrial COXII DNA); conditions: for Average ΔCt ± s.d. MitCoxII / Average ΔCt ± s.d. rDNA / Average ΔΔCt ± s.d. MitCOXII-rDNA / Fold difference in COXII DNA levels normalized for rDNA (range) relative to control: HepG2, 14-day treatment

## Nc1nc(=O)n([C@@H]2C=C[C@H](CO)O2)cc1F [L-d4FC]
[1]; HepAD79 cells, 10 μM, 13-day incubation, HBV DNA in supernatant
  HepAD79 log10 inhibition at 10 μM: 1.64 ± 0.37 log10
[1]; HepAD79 cells, 13-day incubation, read-out: HepAD79 EC90
  EC90: 880 nM
[1]; fold increase, EC90 HepAD79 over EC90 HepAD38
  FI EC90 AD79/EC90 AD38: 17.6
M522V virus (rtV204 HBV)
  EC50: 1800 nM
[2]; 10 μM, HBV DNA in supernatant
  HepAD38 log10 inhibition at 10 μM: 2.56 ± 0.44 log10
[2]; concentration reducing viral load by 90%, unit printed in text only, read-out: HepAD38 EC90
  EC90: 50 ± 20 nM
HepG2 cells
  effect on cell growth (in words): reduced the cell growth significantly
[3]; 10 μM
  Average ΔCt ± s.d. MitCoxII: 2.72 ± 0.27
  Average ΔCt ± s.d. rDNA: 3.89 ± 0.23
  Average ΔΔCt ± s.d. MitCOXII-rDNA: −1.17 ± 0.47
  Fold difference in COXII DNA levels normalized for rDNA (range) relative to control: 2.25 (1.62-3.12)
[3]; 100 μM
  Average ΔCt ± s.d. MitCoxII: 6.52 ± 0.14
  Average ΔCt ± s.d. rDNA: 8.76 ± 0.47
  Average ΔΔCt ± s.d. MitCOXII-rDNA: 2.24 ± 0.58
  Fold difference in COXII DNA levels normalized for rDNA (range) relative to control: 4.72 (3.16-7.04)
[3]; HepG2, up to 100 μM, 14 days
  effect on mitochondrial DNA levels (in words): did not specifically affect the mitochondrial DNA levels

— patent publication US20040157793A1, “Modified nucleosides as antiviral agents” (priority 2002, published 2004)
